Measurements from article PMC6832960, “The Fragment-Based Development of a Benzofuran Hit as a New Class of Escherichia coli DsbA Inhibitors” (Molecules, 2019).

Experiments:
EcDsbA [1] = target: T1, EcDsbA (Escherichia coli, UniProt P0AEG4); test: waterLOGSY ligand-detected NMR binding; details: compound 500 µM, unlabelled EcDsbA 10 µM, 298 K
T1 construct: made in house; protein recovered from the periplasm of the expressing cells
Description: (§1) To validate the binding of benzofuran analogues, three ligand-detected NMR methods, saturation-transfer difference (STD), Carr–Purcell–Meiboom–Gill (CPMG), and water–ligand observed via gradient spectroscopy (waterLOGSY), were employed to detect protein-ligand binding between the benzofurans and EcDsbA (Figure 2C). These experiments were designed as a primary screening tool to select analogues to undergo further affinity evaluation and prioritise compounds for crystal soaking. […] In a good agreement with this finding, eight out of nine benzofurans that passed all three ligand-detected experiments have their co-crystal structures successfully solved; in contrast, five compounds that failed two ligand-detected experiments only have one co-structure solved (Table 2).
(§2) For ligand-detected NMR spectroscopy, two samples (compound alone and compound + protein) were prepared for each compound. Unlabelled EcDsbA was prepared at 10 µM in a buffer of 50 mM sodium phosphate, pH 6.8, 25 mM NaCl, 100 µM 4,4-dimethyl 4-silapentane-1-sulfonic acid (DSS), and 10% ^2H2O. Compound was added to the protein sample to achieve final concentration of 500 µM (2% ^2H6-DMSO). ^1H 1D spectrum was acquired for each compound at 500 µM as a reference spectrum. All ligand-detected NMR experiments (STD, CPMG, and waterLOGSY) were acquired at 298 K on a Bruker Avance III 600 MHz NMR spectrometer equipped with a 5 mm TXI CryoProbe (Bruker, Billerica, MA, USA). STD spectra were acquired with 3 s of saturation at 1 ppm (on-resonance) and 33.3 ppm (off-resonance). WaterLOGSY spectra were acquired for compound alone and compound + protein with a 0.52 s acquisition time, 3 s relaxation delay, and 3 s Nuclear Overhauser effect (NOE) mixing time. CPMG spectra for compound alone and compound + protein were acquired with a constant spin echo delay of 1 ms and spin-lock period of 350 ms. The data was analysed using Topspin3.5 (Bruker) and DSS was used to reference the spectra.

EcDsbA [2] = target: T1, EcDsbA; test: CPMG ligand-detected NMR binding; details: compound 500 µM, unlabelled EcDsbA 10 µM, 298 K, spin-lock 350 ms
Description: as §1, §2

EcDsbA [3] = target: T1, EcDsbA; test: STD ligand-detected NMR binding; details: compound 500 µM, unlabelled EcDsbA 10 µM, 298 K
Description: as §1, §2

EcDsbA [4] = target: T1, EcDsbA; test: Compound soaking into EcDsbA crystals and X-ray diffraction; assay type: binding; details: crystals soaked with compound at 10 mM (5% DMSO) for 3–6 h
Description: The synthesised analogues were soaked into crystals of EcDsbA and X-ray diffraction data was collected for each analogue in order to determine their site of binding. […] The carboxy moiety of 15 was oriented towards the left-hand side of the binding groove, where more polar residues are located. The phenyl ring of the aniline moiety occupied the hydrophobic end of the binding pocket with the nitrogen atom of the amine linker positioned in close proximity to Gln35. […] Although anisidine 16 was occupying a larger region of the EcDsbA binding groove, the shift appeared to have interrupted the π-stacking interactions the benzofuran was making with the His32 side chain previously (Figure 1B and Figure S1).
EcDsbA was crystallised as previously described. Briefly, 1 µL of 30 mg/mL EcDsbA was mixed with an equal volume of crystallisation buffer (11–13% PEG8000, 5–7.5% glycerol, 1 mM CuCl2, 100 mM, sodium cacodylate pH 6.1) and equilibrated against 500 µL of reservoir buffer at 20 °C using hanging drop vapour diffusion. For compound soaking, crystals were transferred into 2 µL drops of 24% PEG8000, 22% glycerol, and 100 mM sodium cacodylate (pH 6.1) containing a compound of interest at the final concentration of 10 mM (5% DMSO) and were incubated for 3–6 h. Crystals were mounted on loops and flash-cooled in liquid nitrogen.
Datasets were collected at the Australian synchrotron on MX1 and MX2 beamlines using the Blue-Ice software (Irvine, CA, USA). MX1 beamline was equipped with an ADSC Quantum 210r detector and MX2 with an ADSC Quantum 315r detector. All datasets were indexed and integrated with iMOSFLM [32] or XDS [33]—and scaled using AIMLESS [34, 35] or SCALA [36]. Phasing was performed by molecular replacement with Phaser using the previously solved structure of EcDsbA as a search model (PDB code 1FVK). The final structure was obtained after several rounds of manual model building using Coot and refinement in phenix.refine. Structures, factors and coordinates have been deposited in the Protein Data Bank (PDB; http://www.pdb.org) under the accession codes of 6PMF, 6POQ, 6POH, 6PML, 6PVY, 6POI, and 6PVZ.

[5] = Solubility noted in the HSQC titration; assay type: physicochemical; details: HSQC titration buffer
Description: The ligand efficiency (LE) ranged from 0.15 to 0.24 kcal mol^−1 HAC^−1. […] Biophysical characterisation of 25 is illustrated in Figure 2. […] Alkyl substituents at C-6 flipped the compound orientation within the hydrophobic groove and disrupt the polar interaction between the imidazole side chain of His32 and carboxyl group of the compound present in the 25 co-structure (Figure 1C). […] It was evident in the co-crystal structure of p-anisidine 16 that the p-methoxy group had caused the benzofuran scaffold to shift further along the hydrophobic groove, possibly disrupting the π-stacking interaction with His32 and polar interactions with Gln164 (Figure 1B).

15N-labelled EcDsbA = target: T2, 15N-labelled EcDsbA (Escherichia coli, UniProt P0AEG4); test: 2D 1H-15N HSQC chemical shift perturbation / titration; assay type: binding
T2 construct: made in house; protein recovered from the periplasm of the expressing cells
T2 sequence (P0AEG4 20-208): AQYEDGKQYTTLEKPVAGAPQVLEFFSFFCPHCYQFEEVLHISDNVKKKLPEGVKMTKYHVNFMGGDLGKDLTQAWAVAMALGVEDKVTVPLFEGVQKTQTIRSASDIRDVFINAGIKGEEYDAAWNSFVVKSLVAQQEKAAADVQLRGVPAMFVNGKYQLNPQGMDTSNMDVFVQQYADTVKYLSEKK
Protocol: Compounds that passed at least one ligand-detected NMR experiment were further validated by 2D ^1H-^15N heteronuclear single quantum coherence (HSQC) spectroscopy. In HSQC experiments, chemical shift perturbations (CSP) of backbone amide resonances of ^15N-labelled EcDsbA were measured upon addition of compound at 1 mM. […] In accordance with the crystal structure, the majority of the residues perturbed by 1 mM of benzofuran analogues in single-point HSQCs are located around the hydrophobic groove which is an important binding site for DsbA substrates (Figure 2A). […] Eight compounds produced large enough CSP (>0.04 ppm) to enable HSQC titration and KD determination.
For the 2D ^1H-^15N-HSQC titration experiment, 100 µM of ^15N-labelled EcDsbA in a buffer of 50 mM HEPES, pH 6.8, 50 mM NaCl, 2% ^2H6-DMSO, and 10% ^2H2O, was titrated with increasing concentrations of compounds ([…], 0.125, 0.25, 0.5, and 1 mM). Data were acquired on a Bruker 600 MHz spectrometer equipped with a 5 mm TXI CryoProbe and a Bruker 700 MHz spectrometer equipped with a 5 mm TXI CryoProbe. Data was processed by Topspin3.5 (Bruker) and analysed by Sparky (T. D. Goddard and D. G. Kneller, SPARKY 3, University of California, San Francisco (UCSF)). Weighted chemical shift perturbations (CSP) that were observed upon addition of compounds to EcDsbA were calculated using an Equation (1) in [41]: (1) CSP=ΔδH^2+(0.2×ΔδN)^2 where ΔδH and ΔδN denote the change in chemical shift of amide proton and nitrogen resonances upon addition of the compound. Equilibrium dissociation constants (KD) were determined by fitting the plot of CSP against compound concentrations using one site with ligand depletion model (Equation (2)): (2) CSP=CSPmax×[(KD+Pt+Lt)−((KD+Pt+Lt)^2−4×Pt×Lt)]/2×Pt where CSP is the measured CSP at a given concentration, CSPmax is the CSP observed at the saturating concentration of compound, and Pt and Lt are the total protein and compound concentrations. The ligand efficiency (LE) is calculated using the Equation (3) in [42]: (3) LE=−ΔG/HAC=−RTln(KD)/HAC where R is gas constant (1.9858775 cal K^−1 mol^−1), T is temperature (298 K), KD is equilibrium dissociation constant, and HAC is the number of heavy (non-hydrogen) atoms.

T1 sequence (P0AEG4 20-208): as above

SMILES | wLOGSY (EcDsbA [1]) | CPMG (EcDsbA [2]) | STD (EcDsbA [3]) | Crystal Structure in EcDsbA (EcDsbA [4]) | solubility [5] | melting point | Kd (15N-labelled EcDsbA) | Ligand Efficiency (15N-labelled EcDsbA; LE = −RTln(KD)/HAC, 298 K)
O=C(O)Cc1coc2cc(Nc3ccccc3)ccc12 [compound 15, 2-(6-(Phenylamino)benzofuran-3-yl)acetic acid] | Pass | Pass | Pass | Yes | poor solubility | 127 to 130 °C |  | 
COc1ccc(CC(=O)NC(C(=O)O)c2coc3cc(Br)ccc23)cc1 (stereo not shown) [compound 48, 2-(6-Bromobenzofuran-3-yl)-2-(2-(4-methoxyphenyl)acetamido)acetic acid] | Pass | Fail | Fail | No |  | 159 to 161 °C | 1350 ± 420 µM | 0.15 kcal mol^−1 HAC^−1
